Several values for one entry are separate records, joined by “and”; a condition that tells them apart may be missing. Identical values can stand only once. Toxic doses and inconclusive results are not listed.

The experiment deals with P388 leukemia ip, CD2F1 mice, survival T/C. Description: NCI In Vivo Anticancer Drug Screen. Data for tumor model P388 Leukemia (intraperitoneal) in CD2F1 (CDF1) mice. The note with it: endpoint: median survival time, higher = longer survival. The method, boiled down:
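Mice carrying the transplanted tumor received test compound or vehicle. Survival was recorded in each group, and the value is the treated-group measurement divided by that of the vehicle-treated control group.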

[1] abbreviates: dose: 50.0 mg/kg/injection, schedule: Q01DX009 (ip), vehicle: saline.
[2] abbreviates: dose: 100.0 mg/kg/injection, schedule: Q01DX009 (ip), vehicle: saline.
The mark [3] stands for this setting: dose: 100.0 mg/kg/injection, schedule: Q01DX001 (ip), vehicle: saline.
The mark [4] stands for this setting: dose: 200.0 mg/kg/injection, schedule: Q01DX001 (ip), vehicle: saline.
Where [5] appears, read: dose: 100.0 mg/kg/injection, schedule: Q04DX003 (ip), vehicle: Klucel (hydroxypropylcellulose) (HPC).
The mark [6] stands for this setting: dose: 50.0 mg/kg/injection, schedule: Q01DX005 (ip), vehicle: saline with Tween-80.
The mark [7] stands for this setting: dose: 100.0 mg/kg/injection, schedule: Q01DX005 (ip), vehicle: saline with Tween-80.
[8] abbreviates: dose: 50.0 mg/kg/injection, schedule: Q01DX009 (ip), vehicle: Klucel (hydroxypropylcellulose) (HPC).
Where [9] appears, read: dose: 100.0 mg/kg/injection, schedule: Q01DX009 (ip), vehicle: Klucel (hydroxypropylcellulose) (HPC).
Setting [10] is: dose: 200.0 mg/kg/injection, schedule: Q01DX009 (ip), vehicle: Klucel (hydroxypropylcellulose) (HPC).
Where [11] appears, read: dose: 50.0 mg/kg/injection, schedule: Q01DX005 (ip), vehicle: Klucel (hydroxypropylcellulose) (HPC).
[12] abbreviates: dose: 100.0 mg/kg/injection, schedule: Q01DX005 (ip), vehicle: Klucel (hydroxypropylcellulose) (HPC).
The mark [13] stands for this setting: dose: 200.0 mg/kg/injection, schedule: Q01DX005 (ip), vehicle: Klucel (hydroxypropylcellulose) (HPC).
Setting [14] is: dose: 200.0 mg/kg/injection, schedule: Q01DX005 (ip), vehicle: saline with Tween-80.
[15] abbreviates: dose: 50.0 mg/kg/injection, schedule: Q01DX009 (ip), vehicle: saline with Tween-80.
Setting [16] is: dose: 100.0 mg/kg/injection, schedule: Q01DX009 (ip), vehicle: saline with Tween-80.
Where [17] appears, read: dose: 200.0 mg/kg/injection, schedule: Q01DX009 (ip), vehicle: saline with Tween-80.
Setting [18] is: dose: 60.0 mg/kg/injection, schedule: Q01DX005 (ip), vehicle: Klucel (hydroxypropylcellulose) (HPC).
The mark [19] stands for this setting: dose: 120.0 mg/kg/injection, schedule: Q01DX005 (ip), vehicle: Klucel (hydroxypropylcellulose) (HPC).
Where [20] appears, read: dose: 240.0 mg/kg/injection, schedule: Q01DX005 (ip), vehicle: Klucel (hydroxypropylcellulose) (HPC).

Take `NC(N)=NCCCC(N)C(=O)O` (stereo unspecified): the T/C runs as follows: under setting [1], 119 % of control; under setting [2], 100 % of control and 122 % of control; (dose: 200.0 mg/kg/injection, schedule: Q01DX009 (ip), vehicle: saline) 105 % of control and 110 % of control; (dose: 400.0 mg/kg/injection, schedule: Q01DX009 (ip), vehicle: saline) 100 % of control.
`COc1cccc2c1C(=O)c1c(O)c3c(c(O)c1C2=O)C[C@@](O)(/C(C)=N\NC(=O)CCC(N)C(=O)O)C[C@@H]3OC1CC(N)C(O)C(C)O1` (stereo partly specified) (tested in a mixture with another compound): the T/C reads like this: (dose: 18.75 mg/kg/injection, schedule: Q04DX003 (ip), vehicle: water) 121 % of control; (dose: 75.0 mg/kg/injection, schedule: Q04DX003 (ip), vehicle: water) 121 % of control; (dose: 300.0 mg/kg/injection, schedule: Q04DX003 (ip), vehicle: water) 163 % of control.
`CSc1nccn[n+]1C`: the T/C is, setting by setting: under setting [3], 112 % of control; under setting [4], 111 % of control.
As to `COc1ccc2c(=O)c(-c3ccc(OC)c(OC)c3OC)coc2c1`, the T/C under setting [5] is 99 % of control; the T/C (dose: 200.0 mg/kg/injection, schedule: Q04DX003 (ip), vehicle: Klucel (hydroxypropylcellulose) (HPC)) is 100 % of control; the T/C (dose: 400.0 mg/kg/injection, schedule: Q04DX003 (ip), vehicle: Klucel (hydroxypropylcellulose) (HPC)) was 99 % of control.
On to `CNC(=O)N(C)C1=NC(O)(c2ccccc2)C(c2ccccc2)=N1` (stereo unspecified), for which the T/C (dose: 100.0 mg/kg/injection, schedule: Q04DX002 (ip), vehicle: saline with Tween-80) is 87 % of control.
As for `CN1CC(=O)NC2(CCCC2)C1=O`, the T/C (dose: 37.5 mg/kg/injection, schedule: Q04DX002 (ip), vehicle: Klucel (hydroxypropylcellulose) (HPC)) was 102 % of control; the T/C (dose: 75.0 mg/kg/injection, schedule: Q04DX002 (ip), vehicle: Klucel (hydroxypropylcellulose) (HPC)) is 101 % of control; the T/C (dose: 150.0 mg/kg/injection, schedule: Q04DX002 (ip), vehicle: Klucel (hydroxypropylcellulose) (HPC)) was 99 % of control; the T/C (dose: 300.0 mg/kg/injection, schedule: Q04DX002 (ip), vehicle: Klucel (hydroxypropylcellulose) (HPC)) is 105 % of control.
As to `CC(C)C(NN)C(=O)O` (stereo unspecified), the T/C by setting is: under setting [6], 98 % of control; under setting [7], 116 % of control.
For the compound `O=[N+]([O-])c1c(NC2(CO)CCCC2)ncnc1NC1(CO)CCCC1`, the T/C is, setting by setting: (dose: 65.5 mg/kg/injection, schedule: Q04DX003 (ip), vehicle: Klucel (hydroxypropylcellulose) (HPC)) 97 % of control; (dose: 131.0 mg/kg/injection, schedule: Q04DX003 (ip), vehicle: Klucel (hydroxypropylcellulose) (HPC)) 105 % of control; (dose: 262.0 mg/kg/injection, schedule: Q04DX003 (ip), vehicle: Klucel (hydroxypropylcellulose) (HPC)) 102 % of control.
`O=C(NC(Sc1ccc(Cl)cc1)C(=O)O)c1ccccc1` (stereo unspecified): the T/C runs as follows: under setting [8], 104 % of control; under setting [9], 94 % of control; under setting [10], 94 % of control.
With `Cn1ccc2c1CC(=O)NC2=O`, the T/C runs as follows: (dose: 3.12 mg/kg/injection, schedule: Q04DX003 (ip), vehicle: Klucel (hydroxypropylcellulose) (HPC)) 100 % of control; (dose: 6.25 mg/kg/injection, schedule: Q04DX003 (ip), vehicle: Klucel (hydroxypropylcellulose) (HPC)) 108 % of control; (dose: 12.5 mg/kg/injection, schedule: Q04DX003 (ip), vehicle: Klucel (hydroxypropylcellulose) (HPC)) 114 % of control; under setting [5], 106 % of control.
Regarding `CCCCCCOC(=O)Nc1nnc(SSC2=NN=CC2NC(=O)OCCCCCC)s1` (stereo unspecified), the T/C was 91 % of control under setting [3]; 90 % of control under setting [4]; 90 % of control (dose: 400.0 mg/kg/injection, schedule: Q01DX001 (ip), vehicle: saline).
Take `Clc1cccc(Cl)c1C(Nc1ncccn1)Nc1ncccn1`: the T/C is 106 % of control under setting [11], 100 % of control under setting [12] and 97 % of control under setting [13].
With `CC(C)CC(O)C(CC(=O)Nc1ccccc1)S(=O)(=O)c1ccccc1` (stereo unspecified), the T/C is 100 % of control under setting [6], 92 % of control under setting [7] and 86 % of control under setting [14].
For the compound `COc1cc(OC)c(NC(=O)O/N=C(\c2ccccc2)C(O)c2ccccc2)cc1Cl` (stereo unspecified), the T/C by setting is: under setting [15], 91 % of control; under setting [16], 91 % of control; under setting [17], 90 % of control.
Take `COc1cc2c(cc1Oc1ccc(OC)c3c1CC1c4c(cc(OC)c(OC)c4-3)CCN1C)CC1c3c(cc(OC)c(OC)c3-2)CCN1C` (stereo unspecified): the T/C was 94 % of control (dose: 20.0 mg/kg/injection, schedule: Q01DX009 (ip), vehicle: water); 101 % of control (dose: 40.0 mg/kg/injection, schedule: Q01DX009 (ip), vehicle: water); 93 % of control (dose: 80.0 mg/kg/injection, schedule: Q01DX009 (ip), vehicle: water); 93 % of control (dose: 160.0 mg/kg/injection, schedule: Q01DX009 (ip), vehicle: water).
With `O=C(CCl)N1CC2CCC(CC2)C1`, the T/C is, setting by setting: under setting [15], 102 % of control; under setting [16], 91 % of control.
Consider `CC(=O)Nc1ccc(C(=O)C(C)Br)cc1` (stereo unspecified), for which the T/C reads like this: (dose: 6.25 mg/kg/injection, schedule: Q01DX009 (ip), vehicle: saline with Tween-80) 106 % of control and 117 % of control and 119 % of control; (dose: 12.5 mg/kg/injection, schedule: Q01DX009 (ip), vehicle: saline with Tween-80) 116 % of control and 117 % of control and 124 % of control; (dose: 25.0 mg/kg/injection, schedule: Q01DX009 (ip), vehicle: saline with Tween-80) 108 % of control and 119 % of control and 124 % of control.
With `CCOC(=O)/C=C/C(F)(F)C(F)(F)C(F)(F)C(F)(F)C(F)(F)C(F)(F)C(F)(F)F`, the T/C is 100 % of control (dose: 100.0 mg/kg/injection, schedule: Q04DX003 (ip), vehicle: saline); 100 % of control (dose: 200.0 mg/kg/injection, schedule: Q04DX003 (ip), vehicle: saline); 100 % of control (dose: 400.0 mg/kg/injection, schedule: Q04DX003 (ip), vehicle: saline).
Turning to `CN(C)CCC(=O)c1ccccc1`, the T/C is, setting by setting: under setting [1], 104 % of control; under setting [2], 110 % of control.
Regarding `O=C1C=CC(=C2SCCS2)C(O)=C1`, the T/C by setting is: under setting [8], 100 % of control; under setting [9], 93 % of control; under setting [10], 97 % of control.
Consider `O=C1CN(CCN2CCOCC2)CC(=O)N2Cc3ccccc3CN12`, for which the T/C under setting [6] is 108 % of control, the T/C under setting [7] was 98 % of control and the T/C under setting [14] was 101 % of control.
As for `N=C(N)COCc1ccccc1`, the T/C is, setting by setting: (dose: 25.0 mg/kg/injection, schedule: Q01DX009 (ip), vehicle: saline) 116 % of control; under setting [1], 120 % of control; under setting [2], 111 % of control.
Consider `CCOn1nnc2ccccc21`, for which the T/C was 92 % of control under setting [15], 95 % of control under setting [16] and 92 % of control under setting [17].
For `CC(C)(C)n1nc(C2CC2)c(Br)c1NC(=O)c1ccccc1`, the T/C is, setting by setting: (dose: 30.0 mg/kg/injection, schedule: Q01DX005 (ip), vehicle: Klucel (hydroxypropylcellulose) (HPC)) 107 % of control; under setting [18], 109 % of control; under setting [19], 107 % of control; under setting [20], 98 % of control.
Take `COc1ccc(-n2c(C)nc3c(cnn3C)c2=O)cc1`: the T/C is 101 % of control and 96 % of control (dose: 25.0 mg/kg/injection, schedule: Q01DX005 (ip), vehicle: Klucel (hydroxypropylcellulose) (HPC)); 100 % of control and 101 % of control and 97 % of control under setting [11]; 108 % of control and 115 % of control and 95 % of control under setting [12]; 99 % of control and 120 % of control and 97 % of control under setting [13].
For `Cc1nn2c(nnn2CCO)c1-c1ccccc1`, the T/C runs as follows: under setting [18], 105 % of control; under setting [19], 91 % of control; under setting [20], 91 % of control.
For the compound `CC12C(=O)OC(=O)C1(O)C1c3ccccc3C2c2ccccc21` (stereo unspecified), the T/C is, setting by setting: under setting [11], 101 % of control; under setting [12], 101 % of control; under setting [13], 101 % of control.

(Values after PubChem BioAssay AID330 (DTP/NCI, 2004).)
